Measurements as given in US8741871B2, “Trehalose compound, method for producing same, and pharmaceutical product containing the compound” (priority 2008, dated 2014).

Columns and labels:
[1] = tested on: Pseudomonas aeruginosa (Fhu-071115 strain); assay type: in vivo
Procedure: As a test compound, 1 mg of the compound synthesized by the method described in Production Example α-1 was weighed. An emulsion solution of the test compound was prepared in the same manner as described above.
Pseudomonas aeruginosa (Fhu-071115 strain) derived from patients was used, and it was prepared as follows.
L-broth was withdrawn with a 40-ml measuring pipette and was then added to a 200-ml flask, and the flask was then sealed with a sponge plug. At the same time, 5 ml of L-broth was added to each of two other screw-top test tubes. The thus prepared flask and screw-top test tubes were subjected to an autoclave at 121° C. for 20 minutes. After the L-broth medium had been cooled to a room temperature, Pseudomonas aeruginosa, which had been stored in an ultra low temperature freezer, was added into 40 ml of the L-broth the medium in a clean bench. The obtained mixture was shaken in an incubator overnight. Thereafter, the resultant was centrifuged at 9000 rpm for 15 minutes, and the supernatant was then removed. […] This process was carried out three times. Thereafter, 4.5 ml of sterilized normal saline solution was added to the resultant, and the mixture was then blended with the use of a Vortex mixer. The obtained solution was used as a strain stock solution. Using a 1000-fold diluted strain solution, the number of cells was counted with OneCell Counter. Thereafter, the strain stock solution was diluted to a desired concentration, and the thus diluted solution was then used in the subsequent test.
Mice were divided into two groups, and the following two types of experiments were carried out. • (A) The aforementioned emulsion solution containing the test compound (100 μg/mouse) was intraperitoneally administered to a group of three mice (ICR, 5-week-old). Three hours later, Pseudomonas aeruginosa (5.0×10^7 cells/mouse) was intraperitoneally administered to the mice. Thereafter, the condition of the mice was observed. (B) Pseudomonas aeruginosa (2.0×10^7 cells/mouse) was intraperitoneally administered to a group of three mice (ICR, 5-week-old). Three hours later, the aforementioned emulsion solution containing the test compound (100 μg/mouse) was intraperitoneally administered to the mice. Thereafter, the condition of the mice was observed.

[2] = tested on: Welch bacillus (Type A; NTCT8237); assay type: in vivo
Procedure: As test compounds, 1 mg each of the compound synthesized by the method described in Production Example α-1 and TDCM were weighed. Emulsion solutions of the test compounds (1 mg/ml) were prepared in the same manner as described above.
[…] of Brain Heart Infusion (BHI) (Difco) powders were dissolved in 200 ml of distilled water. 40 ml of the obtained solution (hereinafter this solution is referred to as a “BHI medium”) was withdrawn with a measuring pipette, and it was then added to a 200-ml flask, followed by performing a high-pressure steam sterilization (121° C., 20 minutes). In addition, 5 ml of the BHI medium was added to two screw-top test tubes, and they were then subjected to a high-pressure steam sterilization. Moreover, a glass tube-equipped rubber plug (with a cotton plug) and a glass tube were also subjected to a high-pressure steam sterilization. In a clean bench, an appropriate amount of bacteria for preservation, which had grown on a cooked meat medium, was collected with a sterilized Pasteur pipette, and it was then inoculated on the BHI medium in the aforementioned sterilized screw-top test tube. Subsequently, it was incubated at 37° C. overnight.
In a clean bench, bacteria that had grown in the screw-top test tube (wherein the inside of the […] in which bacteria had grown became clouded, and gas was generated) was transferred into a 200-ml Erlenmeyer flask, which contained 40 ml of BHI medium. A glass tube was inserted into the medium, so as to carry out nitrogen substitution for 10 minutes. Subsequently, the glass tube-equipped rubber plug (with a cotton plug) was equipped in the Erlenmeyer flask (since Welch bacillus generates gas, it is necessary to make an air vent), and incubation was then carried out at 37° C. for 4 to 5 hours. Thereafter, the cultured Welch bacillus was transferred into a centrifuge tube, it was then centrifuged (9000 rpm, 15 minutes), and the supernatant was then removed. 20 ml of sterilized normal saline solution was added to the precipitate, so that the bacteria were suspended therein. The suspension was centrifuged (9000 rpm, 15 minutes), and the supernatant was then removed.
Mice (ICR, 6-week-old) were divided into three groups, and the following test was then carried out.
An emulsion solution containing the test compound, an emulsion solution containing TDCM, or an emulsion solution alone, which was to be used as a control, was intraperitoneally administered in an amount of 100 μg/mouse to a group of four mice (100 μl/mouse, in the case of the emulsion solution alone). Three hours later, Welch bacillus (2.4×10^7 cells/mouse) was intraperitoneally administered to the mice. Thereafter, the condition of the mice was observed.

CCCCCCCCCCC(CCCCCCCCCC)C(=O)OCC1O[C@H](O[C@H]2OC(COC(=O)C(CCCCCCCCCC)CCCCCCCCCC)[C@@H](O)C(O)C2O)C(O)C(O)[C@@H]1O (stereo partly drawn) [Example 1, 6,6′-bis-O-(2-decyldodecanoyl)-α,α′-trehalose]
Number of surviving mice/number of treated mice, 2 hours later (Group A) ([1]; Group A: pre-administration 100 μg/mouse i.p., three hours later Pseudomonas aeruginosa 5.0×10^7 cells/mouse i.p., 2 hours later): 3/3 | Number of surviving mice/number of treated mice, 4 hours later (Group A) ([1]; Group A: pre-administration 100 μg/mouse i.p., three hours later Pseudomonas aeruginosa 5.0×10^7 cells/mouse i.p., 4 hours later): 3/3 | Number of surviving mice/number of treated mice, 15 hours later (Group A) ([1]; Group A: pre-administration 100 μg/mouse i.p., three hours later Pseudomonas aeruginosa 5.0×10^7 cells/mouse i.p., 15 hours later): 2/3 | Number of surviving mice/number of treated mice, 24 hours later (Group A) ([1]; Group A: pre-administration 100 μg/mouse i.p., three hours later Pseudomonas aeruginosa 5.0×10^7 cells/mouse i.p., 24 hours later): 2/3 | Number of surviving mice/number of treated mice, 48 hours later (Group A) ([1]; Group A: pre-administration 100 μg/mouse i.p., three hours later Pseudomonas aeruginosa 5.0×10^7 cells/mouse i.p., 48 hours later): 2/3 | Number of surviving mice/number of treated mice, 2 hours later (Group B) ([1]; Group B: Pseudomonas aeruginosa 2.0×10^7 cells/mouse i.p., three hours later test compound 100 μg/mouse i.p., 2 hours later): 3/3 | Number of surviving mice/number of treated mice, 4 hours later (Group B) ([1]; Group B: Pseudomonas aeruginosa 2.0×10^7 cells/mouse i.p., three hours later test compound 100 μg/mouse i.p., 4 hours later): 3/3 | Number of surviving mice/number of treated mice, 15 hours later (Group B) ([1]; Group B: Pseudomonas aeruginosa 2.0×10^7 cells/mouse i.p., three hours later test compound 100 μg/mouse i.p., 15 hours later): 3/3 | Number of surviving mice/number of treated mice, 24 hours later (Group B) ([1]; Group B: Pseudomonas aeruginosa 2.0×10^7 cells/mouse i.p., three hours later test compound 100 μg/mouse i.p., 24 hours later): 1/3 | Number of surviving mice/number of treated mice, 48 hours later (Group B) ([1]; Group B: Pseudomonas aeruginosa 2.0×10^7 cells/mouse i.p., three hours later test compound 100 μg/mouse i.p., 48 hours later): 1/3 | Number of surviving mice/number of treated mice, 2 hours later ([2]; 100 μg/mouse i.p. three hours before Welch bacillus 2.4×10^7 cells/mouse i.p., 2 hours later): 4/4 | Number of surviving mice/number of treated mice, 6 hours later ([2]; 100 μg/mouse i.p. three hours before Welch bacillus 2.4×10^7 cells/mouse i.p., 6 hours later): 4/4 | Number of surviving mice/number of treated mice, 12 hours later ([2]; 100 μg/mouse i.p. three hours before Welch bacillus 2.4×10^7 cells/mouse i.p., 12 hours later): 4/4 | Number of surviving mice/number of treated mice, 24 hours later ([2]; 100 μg/mouse i.p. three hours before Welch bacillus 2.4×10^7 cells/mouse i.p., 24 hours later): 3/4 | Number of surviving mice/number of treated mice, 48 hours later ([2]; 100 μg/mouse i.p. three hours before Welch bacillus 2.4×10^7 cells/mouse i.p., 48 hours later): 3/4 | mice that escaped death in Welch bacillus lethal models ([2]; 100 μg/mouse i.p., text summary of Table 4): three out of the four mice
